Experimental data published in patent US11129829B2, “Methods for modulating splicing” (Skyhawk Therapeutics, Inc., priority 2019, dated 2021).
Where two headings read alike, the source gives them in different places.

Assays:
Format in all cases: cell-based
[1] = tested on: A-673; assay: A-673 cell viability
[2] = tested on: FoxM1 A mRNA; assay: Splice EC50: FoxM1 A mRNA increase (exon excluded); settings: read-out: Splice EC50 (nM)^B
[3] = tested on: FoxM1 BC mRNA; assay: Splice IC50: FoxM1 BC mRNA decrease (exon included); settings: read-out: Splice IC50 (nM)^C
[4] = tested on: Target 1; assay: qPCR assay, Target 1 splicing potency (poison exons 7b and 7c inclusion); settings: for IC50: WT transcript
Procedure: (§1) A-673 or SK-N-MC cells were treated with different concentrations of SMSM compounds or DMSO for 24 hours. After the first 16 hours, cells were treated with 100 ug/ml of cycloheximide (CHX) for 8 hours to inhibit protein translation and nonsense-mediated decay (NMD). Cells were lysed with RNA lysis buffer and RNAs were purified using standard methods. After cDNA synthesis, samples were analyzed by qPCR using target transcript specific Taqman primers/probes (FIGS. 7, 19, 20, and 29). Absolute copy numbers were determined using standard curves from G-block DNA fragments (FIGS. 8, 9, and 21). Relative gene expression was determined by comparing the gene expression in the presence of an SMSM and DMSO (FIGS. 10-16 and 22-28).

[5] = tested on: Target 2; assay: qPCR assay, Target 2 splicing potency (poison exon 12c inclusion); settings: for IC50: WT transcript; for EC50: poison exon E12c inclusion
Procedure: as §1

[6] = Homo sapiens, A673, Cell viability
[7] = poison exon E7b inclusion, read-out: Target 1 Splicing Potency E7b EC50
[8] = poison exon E7c inclusion, read-out: Target 1 Splicing Potency E7c EC50

Compound	IC50 [1, 6]	EC50 [2]	IC50 [3]	IC50 [4]	EC50 [4, 7]	EC50 [4, 8]	IC50 [5]	EC50 [5]	IC50 ([1]; Cell viability)
[2H]C([2H])([2H])n1ncc(-c2ccc(-c3ccc(N(C)[C@@H]4C[C@H]5CCC[C@@H](C4)N5)nn3)c(O)c2)cc1=O [compound 281]	< 10 nM	< 10 nM	< 10 nM						
CN(c1ccc(-c2cc(F)c(-c3cc(=O)n(C)cn3)cc2O)nn1)[C@H]1C[C@]2(C)CC[C@](C)(C1)N2 [SMSM 70816, 6-(4-(6-(((1R,3S,5S)-1,5-dimethyl-8-azabicyclo[3.2.1]octan-3-yl)(methyl)amino)pyridazin-3-yl)-2-fluoro-5-hydroxyphenyl)-3-methylpyrimidin-4(3H)-one]				215 nM	171 nM	737 nM	225 nM	634 nM	
CN(c1ccc(-c2ccc(-n3ccnn3)cc2O)nn1)[C@@H]1C[C@H]2CCC[C@@H](C1)N2 [compound 279, 2-(6-(((1R,3S,5S)-9-azabicyclo[3.3.1]nonan-3-yl)(methyl)amino)pyridazin-3-yl)-5-(1H-1,2,3-triazol-1-yl)phenol]		< 10 nM	< 10 nM						10 to 100 nM
2-(6-(((1R,3S,5S)-1,5-dimethyl-8-azabicyclo[3.2.1]octan-3-yl)(methyl)amino)pyridazin-3-yl)-5-(l-(methyl-d3)-1H-pyrazol-4-yl)phenol [compound 171]									10 to 100 nM
COc1cc(-c2ccc(-c3ccc(N(C)[C@H]4C[C@]5(C)CC[C@](C)(C4)N5)nn3)c(O)c2)cnn1 [SMSM 70812, 2-(6-{[(1R,3S,5S)-1,5-dimethyl-8-azabicyclo[3.2.1]octan-3-yl](methyl)amino}pyridazin-3-yl)-5-(6-methoxypyridazin-4-yl)phenol]				178 nM	174 nM	754 nM	169 nM	355 nM	
Oc1cc(-c2cn[nH]c2)ccc1-c1ccc(O[C@@H]2C[C@H]3CCC[C@@H](C2)N3)nn1 [compound 277, 2-(6-(((1R,3R,5S)-9-azabicyclo[3.3.1]nonan-3-yl)oxy)pyridazin-3-yl)-5-(1H-pyrazol-4-yl)phenol]		> 1000 nM	> 1000 nM						> 1000 nM
Oc1cc(-c2cn[nH]c2)c(F)cc1-c1ccc(O[C@@H]2C[C@H]3CCC[C@@H](C2)N3)nn1 [compound 278, 2-(6-(((1R,3S,5S)-9-azabicyclo[3.3.1]nonan-3-yl)oxy)pyridazin-3-yl)-4-fluoro-5-(1H-pyrazol-4-yl)phenol]	10 to 100 nM								
CN(c1ccc(-c2ccc(-c3ccn(C)c(=O)c3)cc2O)nn1)[C@H]1C[C@]2(C)CCC[C@](C)(C1)N2 [SMSM 70814, 4-[3-hydroxy-4-(6-{methyl[(1R,3S,5S)-1,5-dimethyl-9-azabicyclo[3.3.1]nonan-3-yl]amino}pyridazin-3-yl)phenyl]-1-methyl-1,2-dihydropyridin-2-one]				102 nM	89.2 nM	538 nM	110 nM		
CN(c1ccc(-c2ccc(-c3cnn(CF)c3)cc2O)nn1)[C@H]1C[C@]2(C)CC[C@](C)(C1)N2 [SMSM 70810, 2-(6-{[(1R,3S,5S)-1,5-dimethyl-8-azabicyclo[3.2.1]octan-3-yl](methyl)amino}pyridazin-3-yl)-5-[1-(fluoromethyl)-1H-pyrazol-4-yl]phenol]				236 nM	180 nM	1050 nM	220 nM	418 nM	
CN(C)C(=O)c1cc2cc(-c3ccc(N(C)[C@@H]4C[C@H]5CCC[C@@H](C4)N5)nn3)c(O)cc2o1 [compound 298, 5-(6-(((1R,3S,5S)-9-azabicyclo[3.3.1]nonan-3-yl)(methyl)amino)pyridazin-3-yl)-6-hydroxy-N,N-dimethylbenzofuran-2-carboxamide]	10 to 100 nM								
COc1cc(-c2ccc(-c3ccc(N(C)[C@H]4C[C@]5(C)CC[C@](C)(C4)N5)nn3)c(O)c2)ncn1 [SMSM 70817, 2-(6-{[(1R,3S,5S)-1,5-dimethyl-8-azabicyclo[3.2.1]octan-3-yl](methyl)amino}pyridazin-3-yl)-5-(6-methoxypyrimidin-4-yl)phenol]				707 nM	941 nM	2910 nM	930 nM	1160 nM	
6-(6-(((1R,3S,5S)-8-azabicyclo[3.2.1]octan-3-yl)(methyl)amino)pyridazin-3-yl)quinolin-7-ol [compound 162]									251 to 500 nM
CN(c1ccc(-c2cc(F)c(-c3cn[nH]c3)cc2O)nn1)[C@@H]1C[C@H]2CCC[C@@H](C1)N2 [SMSM 70807, 4-fluoro-2-(6-{methyl[(1R,3S,5S)-9-azabicyclo[3.3.1]nonan-3-yl]amino}pyridazin-3-yl)-5-(1H-pyrazol-4-yl)phenol]				46 nM	168 nM	162 nM	50.8 nM	540 nM	
CNC(=O)/C=C/c1cc(O)c(-c2ccc(N(C)[C@H]3C[C@]4(C)CCC[C@](C)(C3)N4)nn2)cc1F [SMSM 70813, (2E)-3-[2-fluoro-5-hydroxy-4-(6-{methyl[(1R,3S,5S)-1,5-dimethyl-9-azabicyclo[3.3.1]nonan-3-yl]amino}pyridazin-3-yl)phenyl]-N-methylprop-2-enamide]				99.1 nM	41 nM	310 nM	162 nM	126 nM	
CNC(=O)/C=C/c1cc(O)c(-c2ccc(N(C3CC3)[C@H]3C[C@]4(C)CCC[C@](C)(C3)N4)nn2)cc1F [SMSM 70826, (2E)-3-[4-(6-{cyclopropyl[(1R,3S,5S)-1,5-dimethyl-9-azabicyclo[3.3.1]nonan-3-yl]amino}pyridazin-3-yl)-2-fluoro-5-hydroxyphenyl]-N-methylprop-2-enamide]				177 nM	257 nM	887 nM	337 nM	304 nM	
CN(c1ccc(-c2ccc(-c3cnn(C(F)F)c3)cc2O)nn1)[C@@H]1C[C@H]2CCC[C@@H](C1)N2 [compound 301, 2-(6-(((1R,3S,5S)-9-azabicyclo[3.3.1]nonan-3-yl)(methyl)amino)pyridazin-3-yl)-5-(l-(difluoromethy)-1H-pyrazol-4-yl)phenol]	10 to 100 nM								
COc1cc(-c2ccc(-c3ccc(N(C)[C@H]4C[C@]5(C)CCC[C@](C)(C4)N5)nn3)c(O)c2)cnn1 [SMSM 70820, 5-(6-methoxypyridazin-4-yl)-2-(6-{methyl[(1R,3S,5S)-1,5-dimethyl-9-azabicyclo[3.3.1]nonan-3-yl]amino}pyridazin-3-yl)phenol]				142 nM	111 nM	627 nM	166 nM	530 nM	
CN(C)C(=O)c1cc2cc(O)c(-c3ccc(N(C)[C@@H]4C[C@H]5CCC[C@@H](C4)N5)nn3)cc2o1 [compound 295, 6-(6-(((1R,3S,5S)-9-azabicyclo[3.3.1]nonan-3-yl)(methyl)amino)pyridazin-3-yl)-5-hydroxy-N,N-dimethylbenzofuran-2-carboxamide]	251 to 500 nM								
CNC(=O)/C=C/c1cc(O)c(-c2ccc(N(C)[C@@H]3C[C@H]4CCC[C@@H](C3)N4)nn2)cc1F [SMSM 70808, (2E)-3-{4-[6-({9-azabicyclo[3.3.1]nonan-3-yl}(methyl)amino)pyridazin-3-yl]-2-fluoro-5-hydroxyphenyl}-N-methylprop-2-enamide]				104 nM	47.5 nM	348 nM	149 nM	606 nM	
CNC(=O)c1ccc2cc(-c3ccc(N(C)[C@H]4C[C@]5(C)CCC[C@](C)(C4)N5)nn3)c(O)cc2n1 [SMSM 70824, 7-hydroxy-N-methyl-6-(6-{methyl[(1R,3S,5S)-1,5-dimethyl-9-azabicyclo[3.3.1]nonan-3-yl]amino}pyridazin-3-yl)quinoline-2-carboxamide]				27.6 nM	9.3 nM	60.2 nM	54 nM	46.1 nM	
CNC(=O)/C=C/c1cc(O)c(-c2ccc(N(C3CC3)[C@H]3C[C@]4(C)CC[C@](C)(C3)N4)nn2)cc1F [SMSM 70823, (E)-3-(4-(6-(cyclopropyl((1R,3S,5S)-1,5-dimethyl-8-azabicyclo[3.2.1]octan-3-yl)amino)pyridazin-3-yl)-2-fluoro-5-hydroxyphenyl)-N-methylacrylamide]				328 nM	170 nM	898 nM	463 nM	344 nM	
CN(c1ccc(-c2cc(F)c(-c3ccn(C)c(=O)c3)cc2O)nn1)[C@H]1C[C@]2(C)CCC[C@](C)(C1)N2 [SMSM 70815, 4-[2-fluoro-5-hydroxy-4-(6-{methyl[(1R,3S,5S)-1,5-dimethyl-9-azabicyclo[3.3.1]nonan-3-yl]amino}pyridazin-3-yl)phenyl]-1-methyl-1,2-dihydropyridin-2-one]				105 nM	59.8 nM	423 nM	116 nM	238 nM	
CN(c1ccc(-c2cc(F)c(-c3ccn(CF)c(=O)c3)cc2O)nn1)[C@H]1C[C@]2(C)CCC[C@](C)(C1)N2 [SMSM 70819, 4-[2-fluoro-5-hydroxy-4-(6-{methyl[(1R,3S,5S)-1,5-dimethyl-9-azabicyclo[3.3.1]nonan-3-yl]amino}pyridazin-3-yl)phenyl]-1-(fluoromethyl)-1,2-dihydropyridin-2-one]				93.9 nM	88 nM	293 nM	94.7 nM	92.9 nM	
